Here are results for eight compounds from publication PMC12467433, “Isoniazid-Derived Hydrazones Featuring Piperazine/Piperidine Rings: Design, Synthesis, and Investigation of Antitubercular Activity” (Biomolecules, 2025).

In brackets after ≈: the same amount, converted by molar mass.

Test [1] relates to INH-resistant Mtb clinical isolate with katG S315T mutation. The class given is cell-based, Mycobacterium tuberculosis.
Test [2] deals with INH-resistant Mtb clinical isolate with inhA promoter mutation. The format is cell-based, Mycobacterium tuberculosis.

In the case of `NNC(=O)c1ccncc1` [INH, isonicotinic acid hydrazide, reference compound], the figures for the MIC in test [1] and in test [2] were 6.25 µM (≈ 0.857 µg/mL) and 1.56 µM (≈ 0.214 µg/mL), respectively.
On the same counts, the results for `COc1ccc(N2CCN(c3ccc(C=NNC(=O)c4ccncc4)cc3)CC2)cc1` [IP7, N′-(4-(4-(4-Methoxyphenyl)piperazin-1-yl)benzylidene)isonicotinohydrazide] are 100 µM (≈ 41.5 µg/mL) and 25 µM (≈ 10.4 µg/mL).
On the same counts, the results for `O=C(NN=Cc1ccc(N2CCN(c3ccccn3)CC2)cc1)c1ccncc1` [IP8, N′-(4-(4-(Pyridin-2-yl)piperazin-1-yl)benzylidene)isonicotinohydrazide] are 50 µM (≈ 19.3 µg/mL) and 1.56 µM (≈ 0.603 µg/mL).
The like results for `O=C(NN=Cc1ccc(N2CCN(c3ncccn3)CC2)cc1)c1ccncc1` [IP9, N′-(4-(4-(Pyrimidin-2-yl)piperazin-1-yl)benzylidene)isonicotinohydrazide] were, in that order, 25 µM (≈ 9.69 µg/mL) and 3.12 µM (≈ 1.21 µg/mL).
As to `CN1CCN(c2ccc(C=NNC(=O)c3ccncc3)cc2)CC1` [IP10, N′-(4-(4-Methylpiperazin-1-yl)benzylidene)isonicotinohydrazide], the MIC (as a rule, the smallest concentration in the dilution series that meets the test's criterion for growth inhibition) in test [1] was 25 µM (≈ 8.09 µg/mL); in test [2] it was 1.56 µM (≈ 0.505 µg/mL).
Consider `O=C(NN=Cc1ccc(N2CCN(C3CCCCC3)CC2)cc1)c1ccncc1` [IP11, N′-(4-(4-Cyclohexylpiperazin-1-yl)benzylidene)isonicotinohydrazide], for which the MIC in test [1] was determined as 12.5 µM (≈ 4.89 µg/mL); in test [2], 0.78 µM (≈ 0.305 µg/mL).
Regarding `CCOC(=O)C1CCN(c2ccc(C=NNC(=O)c3ccncc3)cc2)CC1` [IP12, Ethyl 1-(4-((2-isonicotinoylhydrazono)methyl)phenyl)piperidine-4-carboxylate], the MIC in test [1] is 25 µM (≈ 9.51 µg/mL); in test [2], 1.56 µM (≈ 0.593 µg/mL).
The like results for `NC(=O)C1CCN(c2ccc(C=NNC(=O)c3ccncc3)cc2)CC1` [IP13, 1-(4-((2-Isonicotinoylhydrazono)methyl)phenyl)piperidine-4-carboxamide] were, in that order, 50 µM (≈ 17.6 µg/mL) and 1.56 µM (≈ 0.548 µg/mL).
